Results from patent US8440424B2, “Identification of antibiotic resistance using labelled antibiotics” (miacom Diagnostics GmbH, priority 2008, dated 2013).
Where two headings read alike, the source gives them in different places.

What was measured:
23S rRNA = conditions: cited from earlier work
[1] = system: High level Aminoglycoside Resistance in Enterococci (HLAR); assay: Binding of fluorescent labelled antibiotic, resistant vs non-resistant form: HLAR; conditions: reduction in Streptomycin binding; HLAR Enterococci relative to non-resistant form; fluorescent label
Method: (§1) An in-situ hybridisation protocol may be applied as laid down in patent application EP 06 021 267.7, which is incorporated herein by reference. The incubation with a labelled antibiotic may be performed at temperatures below the Tm of the hybridised probe. In a preferred embodiment the temperature is between about 25 and about 65° C., in a more preferred embodiment the temperature is between about 35° C. and about 59° C. In an even more preferred embodiment, the temperature is at about 52° C. The incubation time is preferably between about 1 and about 30 minutes. In a more preferred embodiment the incubation is made for about 15 minutes. After the incubation the slide may be submerged in 50% ethanol followed by a bath in pure ethanol. Both steps may be run for between about 1 and about 10 minutes. The preferred length of incubation is between about 2 and about 6 minutes. It is more preferred to incubate about 4 minutes. […]
(§2) An antibiotic resistance, such as a resistance against penicillin, may be detected in a protocol comprising the steps:
(§3) Table 4 indicates the alteration of the amount of detectable labelled antibiotics in clinically relevant micro-organisms in its resistant form relative to its non-resistant form. The amount is expressed in % change of fluorescence (decrease and increase, respectively) of an antibiotic which carries a fluorescent label.

[2] = system: Vancomycin resistant Enterococci (VRE); assay: Binding of fluorescent labelled antibiotic, resistant vs non-resistant form: VRE; conditions: reduction of vancomycin binding; VRE relative to non-resistant form; fluorescent label
Method: as §1, §2, §3

[3] = system: Vancomycin resistant Staph (VRS); assay: Binding of fluorescent labelled antibiotic, resistant vs non-resistant form: VRS; design: species or system Staphylococci (CNS); conditions: increased binding of Vancomycin; VRS relative to non-resistant form; fluorescent label
Excerpt: (§4) Another preferred application is the detection of the binding of Vancomycin to surface proteins of Staphylococcus aureus which are anchored to the cell wall peptidoglycan. Vancomycin resistant Staphylococci bind the antibiotic to such an extent that it renders Vancomycin ineffective. Labelled Vancomycin therefore will preferably bind to resistant organisms.
(§5) An in-situ hybridisation protocol may be applied as laid down in patent application EP 06 021 267.7, which is incorporated herein by reference. The incubation with a labelled antibiotic may be performed at temperatures below the Tm of the hybridised probe. In a preferred embodiment the temperature is between about 25 and about 65° C., in a more preferred embodiment the temperature is between about 35° C. and about 59° C. In an even more preferred embodiment, the temperature is at about 52° C. The incubation time is preferably between about 1 and about 30 minutes. […]
as §2, §3

[4] = system: Vancomycin resistant Enterococci (VRE); conditions: stated as resistance mechanism; cited from earlier work
[5] = system: Vancomycin resistant SA (VRSA); assay: Binding of fluorescent labelled antibiotic, resistant vs non-resistant form: VRSA; design: species or system Staphylococcus aureus; conditions: binding of labelled Vancomycin relative to non-resistant form
Excerpt: as §4, §5, §2, §3

[6] = system: Vancomycin intermediary SA (VISA); assay: Binding of fluorescent labelled antibiotic, resistant vs non-resistant form: VISA; design: species or system Staphylococcus aureus; conditions: increased binding of Vancomycin; VISA relative to non-resistant form; fluorescent label
Method: as §1, §2, §3

[7] = system: Extended Spectrum β-Lactamase (ESBL) Stenotrophomonas maltophilia; assay: Binding of fluorescent labelled clavulanic acid: ESBL Stenotrophomonas maltophilia; conditions: increase, ESBL Stenotrophomonas maltophilia relative to non-resistant form
Method: as §1, §2, §3

[8] = system: Extended Spectrum β-Lactamase (ESBL) Acinetobacter; assay: Binding of fluorescent labelled clavulanic acid: ESBL Acinetobacter; conditions: increase, ESBL Acinetobacter relative to non-resistant form
Method: as §1, §2, §3

[9] = system: Extended Spectrum β-Lactamase (ESBL) Enterobacteriaceae; assay: Binding of fluorescent labelled clavulanic acid: ESBL Enterobacteriaceae; conditions: increase, ESBL Enterobacteriaceae relative to non-resistant form
Method: as §1, §2, §3

[10] = system: Extended Spectrum β-Lactamase (ESBL) Pseudomonas spp.; assay: Binding of fluorescent labelled clavulanic acid: ESBL Pseudomonas spp.; conditions: increase, ESBL Pseudomonas spp. relative to non-resistant form
Method: as §1, §2, §3

[11] = system: Extended Spectrum β-Lactamase (ESBL) BCC; assay: Binding of fluorescent labelled clavulanic acid: ESBL BCC; conditions: increase, ESBL BCC relative to non-resistant form
Method: as §1, §2, §3

[12] = system: Community acquired MRSA (CA-MRSA); format: binding, Staphylococcus aureus
Method: The incubation with a labelled antibiotic may be performed at temperatures below the Tm of the hybridised probe. In a preferred embodiment the temperature is between about 25 and about 65° C., in a more preferred embodiment the temperature is between about 35° C. and about 59° C. In an even more preferred embodiment, the temperature is at about 52° C. The incubation time is preferably between about 1 and about 30 minutes. In a more preferred embodiment the incubation is made for about 15 minutes. After the incubation the slide may be submerged in 50% ethanol followed by a bath in pure ethanol. Both steps may be run for between about 1 and about 10 minutes. The preferred length of incubation is between about 2 and about 6 minutes. It is more preferred to incubate about 4 minutes. The slides may then be air-dried (e.g. on a hot plate) and the cells may be embedded in a balanced salt mounting medium.

[13] = system: Methicillin Resistant Staphylococcus aureus (MRSA); assay: Binding of fluorescent labelled antibiotic, resistant vs non-resistant form: MRSA; conditions: reduction of Penicillin binding; MRSA relative to non-resistant form; antibiotic carries a fluorescent label
Method: as §1, §2, §3

[14] = system: Border.line oxacillin resistant SA (BORSA); assay: Binding of fluorescent labelled antibiotic, resistant vs non-resistant form: BORSA; design: species or system Staphylococcus aureus; conditions: reduction of penicillin binding; BORSA relative to non-resistant form; fluorescent label
Method: as §1, §2, §3

[15] = system: Oxacillin resistant SA (ORSA); assay: Binding of fluorescent labelled antibiotic, resistant vs non-resistant form: ORSA; design: species or system Staphylococcus aureus; conditions: reduction of penicillin binding; ORSA relative to non-resistant form; fluorescent label
Method: as §1, §2, §3

## [H]/N=C(/N)N[C@H]1[C@H](O)[C@@H](O)[C@H](O[C@@H]2O[C@@H](C)[C@](O)(C=O)[C@H]2O[C@@H]2O[C@@H](CO)[C@H](O)[C@@H](O)[C@@H]2NC)[C@@H](N/C(N)=N\[H])[C@@H]1O [Streptomycin, reference compound]
23S rRNA; 23S rRNA position 2661 "G to C", E. coli, when expressed with Smr, hyperaccurate S12 mutation
  Phenotype: streptomycin dependent
[1]
  % Change in Fluorescenc: >80%

## CN[C@H](CC(C)C)C(=O)N[C@H]1C(=O)N[C@@H](CC(N)=O)C(=O)N[C@H]2C(=O)N[C@H]3C(=O)N[C@H](C(=O)N[C@H](C(=O)O)c4cc(O)cc(O)c4-c4cc3ccc4O)[C@H](O)c3ccc(c(Cl)c3)Oc3cc2cc(c3O[C@@H]2O[C@H](CO)[C@@H](O)[C@H](O)[C@H]2O[C@H]2C[C@](C)(N)[C@H](O)[C@H](C)O2)Oc2ccc(cc2Cl)[C@H]1O [Vancomycin]
[2]
  % Change in Fluorescenc: >80%
[3]
  % Change in Fluorescenc: >50%
[4]
  Reduced affinity to Van: Reduced affinity to Van by 3 orders of magnitude
[5]
  Effect of resistance on fluorescence: Increased
[6]
  % Change in Fluorescenc: 20-50%

## O=C(O)[C@H]1/C(=C/CO)O[C@@H]2CC(=O)N21 [clavulanic acid]
[7]
  % Change in Fluorescenc: >80%
[8]
  % Change in Fluorescenc: >80%
[9]
  % Change in Fluorescenc: >80%
[10]
  % Change in Fluorescenc: >80%
[11]
  % Change in Fluorescenc: >80%

## CSC[S@+]([O-])C[C@H](CO)NC(=O)/C=C/c1c(C)[nH]c(=O)[nH]c1=O [sparsomycin]
23S rRNA; 23S rRNA position 2452 C to U, Halobacterium halobium, Tan 1996
  Phenotype (level of resistance): Low level sparsomycin

## C=C(NC(=O)C(=C)NC(=O)c1csc(C2=N[C@@H]3c4csc(n4)[C@H]4NC(=O)c5csc(n5)[C@H]([C@](C)(O)[C@@H](C)O)NC(=O)[C@H]5CSC(=N5)/C(=C/C)NC(=O)[C@H]([C@@H](C)O)NC(=O)c5csc(n5)[C@]3(CC2)NC(=O)[C@H](C)NC(=O)C(=C)NC(=O)[C@H](C)NC(=O)[C@H]([C@@H](C)CC)N[C@@H]2C=Cc3c([C@H](C)O)cc(nc3[C@H]2O)C(=O)O[C@@H]4C)n1)C(N)=O [thiostrepton]
23S rRNA; 23S rRNA position 1056 G to C, E. coli
  Phenotype: binding in RNA fragments: weakened in RNA
23S rRNA; 23S rRNA position 1067 A to C, E. coli
  Phenotype: drug binding affinity: affinity is reduced similarly.
23S rRNA; 23S rRNA position 1067 A to G, E. coli
  Phenotype: drug binding affinity: affinity is reduced similarly.
23S rRNA; 23S rRNA position 1067 A to U, E. coli
  Phenotype: drug binding affinity: affinity is reduced similarly.
23S rRNA; 23S rRNA position 1067 A to U, E. coli, mutant constituted 30% of the total 23S rRNA pool in the ribosomes
  Phenotype: thiostrepton resistance in poly (U) translation: ribosomes; exhibited 30%

## COc1cc(Cc2cnc(N)nc2N)cc(OC)c1OC [trimethoprim, Trimethoprim]
[12]; CA-MRSA, binding capacity for the labelled antibiotic
  Effect of resistance on fluorescence: Maintaims binding

## Penicillin
[13]
  % Change in Fluorescenc: > to ≈80%
[12]; reduction of penicillin binding, CA-MRSA relative to non-resistant form, antibiotic carries a fluorescent label
  % Change in Fluorescenc: > to ≈80%
[14]
  % Change in Fluorescenc: > to ≈80%
[15]
  % Change in Fluorescenc: > to ≈80%

## spiramycin
23S rRNA; 23S rRNA position 2611 "C to G", Chlamydomonas reinhardtii, Gauthier et al. 1988
  Phenotype: spiramycin resistance
23S rRNA; 23S rRNA position 2611 "C to G", Yeast mitochondria, Sor and Fukahara 1984
  Phenotype: spiramycin resistance
